pEC50: −log10 of the molar value.
Target: T1, human S1P1 receptor (Homo sapiens, UniProt P21453)
T1 construct: expressed in transfected cells; membranes used
Assay: GTP γ35S binding assay for S1P1 activity
Type: biochemical
Conditions: activity potency, S1P1 receptor from GTP γ35S; membranes of cells stably expressing the S1P1 receptor; test concentrations 0.08 to 5,000 nM
Method: Compounds were synthesized and tested for S1P1 activity using the GTP γ^35S binding assay. These compounds may be assessed for their ability to activate or block activation of the human S1P1 receptor in cells stably expressing the S1P1 receptor. GTP γ^35S binding was measured in the medium containing (mM) HEPES 25, pH 7.4, MgCl2 10, NaCl 100, dithiothreitol 0.5, digitonin 0.003%, 0.2 nM GTP γ^35S, and 5 μg membrane protein in a volume of 150 μl. Test compounds were included in the concentration range from 0.08 to 5,000 nM unless indicated otherwise. Membranes were incubated with 100 μM 5′-adenylylimidodiphosphate for 30 min, and subsequently with 10 μM GDP for 10 min on ice. Drug solutions and membrane were mixed, and then reactions were initiated by adding GTP γ^35S and continued for 30 min at 25° C. Reaction mixtures were filtered over Whatman GF/B filters under vacuum, and washed three times with 3 mL of ice-cold buffer (HEPES 25, pH7.4, MgCl2 10 and NaCl 100). Filters were dried and mixed with scintillant, and counted for ^35S activity using a β-counter. Agonist-induced GTP γ^35S binding was obtained by subtracting that in the absence of agonist. Binding data were analyzed using a non-linear regression method.

T1 sequence (P21453 whole entry): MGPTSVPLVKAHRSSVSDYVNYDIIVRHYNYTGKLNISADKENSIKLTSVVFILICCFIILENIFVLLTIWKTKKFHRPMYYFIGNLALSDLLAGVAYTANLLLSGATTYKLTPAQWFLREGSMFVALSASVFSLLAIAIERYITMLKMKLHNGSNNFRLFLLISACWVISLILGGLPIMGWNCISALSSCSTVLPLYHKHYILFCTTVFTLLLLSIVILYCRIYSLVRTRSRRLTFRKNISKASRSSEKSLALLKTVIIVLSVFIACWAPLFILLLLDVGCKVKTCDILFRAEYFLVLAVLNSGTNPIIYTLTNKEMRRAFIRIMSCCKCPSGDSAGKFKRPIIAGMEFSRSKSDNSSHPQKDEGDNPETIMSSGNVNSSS

pEC50: 6.92
SMILES: Cc1ccc(CC(CCC[S+]([O-])c2ccc(CN3CC(C(=O)O)C3)cc2)c2cccc(Cl)c2)cc1C (stereo not shown) [Compound 1, 1-(4-{[4-(3-Chlorophenyl)-5-(3,4-dimethylphenyl)pentyl]sulfinyl}benzyl)azetidine-3-carboxylic acid]

Source: US8957061B2, “Azetidine derivatives as sphingosine 1-phosphate (S1P) receptor modulators” (Allergan, Inc., priority 2013, dated 2015)
